Assay results published in article PMC6225212, “Synthesis and Pharmacological Evaluation of Novel Silodosin-Based Arylsulfonamide Derivatives as α1A/α1D-Adrenergic Receptor Antagonist with Potential Uroselective Profile” (Molecules : A Journal of Synthetic Chemistry and Natural …, 2018).

Tests used:
muscarinic M1R = target: T1, muscarinic M1R (Homo sapiens, UniProt P11229); assay: Off-target panel at Eurofins Cerep, M1; assay type: binding
T1 construct: Eurofins (Celle-Lévescault, France)
T1 sequence (P11229 1-460): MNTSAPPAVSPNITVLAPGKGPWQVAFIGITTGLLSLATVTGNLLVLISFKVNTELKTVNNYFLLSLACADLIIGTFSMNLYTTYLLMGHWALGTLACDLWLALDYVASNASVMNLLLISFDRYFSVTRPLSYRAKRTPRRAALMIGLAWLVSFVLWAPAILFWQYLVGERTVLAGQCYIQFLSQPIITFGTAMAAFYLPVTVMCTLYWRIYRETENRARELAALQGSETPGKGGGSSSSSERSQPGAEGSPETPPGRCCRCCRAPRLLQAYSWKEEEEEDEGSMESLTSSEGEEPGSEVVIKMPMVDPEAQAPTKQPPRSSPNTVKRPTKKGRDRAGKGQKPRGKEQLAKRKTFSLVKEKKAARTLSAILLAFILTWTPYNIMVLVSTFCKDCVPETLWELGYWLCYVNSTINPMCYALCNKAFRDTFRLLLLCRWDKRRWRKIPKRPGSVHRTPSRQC
Experimental: (§1) Finally, the percentage of inhibition for selected compounds 9 and 10 for off-target histaminic H1R, muscarinic M1R, adrenergic β1-AR and potassium ion channel hERG were assessed at Eurofins (Celle-Lévescault, France) according to the procedure online at www.eurofins.com.

human 5-HT1A = target: T2, human 5-HT1A (Homo sapiens, UniProt P08908); assay: Radioligand binding [3H]-8-OH-DPAT, membranes from CHO-K1 cells; details: ± SEM, two independent experiments
T2 construct: expressed in transfected cells; host or cells: CHO-K1
T2 sequence (P08908 1-422): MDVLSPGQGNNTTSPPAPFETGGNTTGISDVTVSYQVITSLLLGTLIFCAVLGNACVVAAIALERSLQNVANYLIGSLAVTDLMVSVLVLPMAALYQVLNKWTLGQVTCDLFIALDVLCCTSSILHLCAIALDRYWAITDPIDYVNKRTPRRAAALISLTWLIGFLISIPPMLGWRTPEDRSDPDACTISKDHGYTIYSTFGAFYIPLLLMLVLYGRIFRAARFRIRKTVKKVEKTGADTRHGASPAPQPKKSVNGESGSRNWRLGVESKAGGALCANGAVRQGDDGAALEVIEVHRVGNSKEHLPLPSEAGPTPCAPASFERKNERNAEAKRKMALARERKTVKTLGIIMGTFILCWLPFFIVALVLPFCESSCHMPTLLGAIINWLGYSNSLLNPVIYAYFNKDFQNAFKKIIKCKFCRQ
Experimental: Experiments were performed using membranes from CHO-K1 cells stably transfected with the human 5-HT1A and 5-HT7Rs according to the methods previously described.
Binding experiments were conducted in 96-well microplates in a total volume of 250 μL of appropriate buffers. The composition of the assay buffers was as follows: 50 mM Tris-HCl, 0.1 mM EDTA, 10 mM MgCl2. The reaction mix included 50 μL solution of test compound, 50 μL of radioligand, and 150 μL of diluted membranes. All assays were incubated for 1 h (5-HT1ARs) or 2 h (5-HT7Rs) at 37 °C. Radioactivity was counted in MicroBeta2 scintillation counter (PerkinElmer, Waltham, MA, USA). Nonspecific binding is defined with 10 µM of 5-HT and 10 µM of methiothepine in 5-HT1AR and 5-HT7R binding experiments, respectively. Each compound was tested in screening assay at two final concentrations of 10 µM and 1 µM.

adrenergic β1-AR = target: T3, adrenergic β1-AR (Homo sapiens, UniProt P08588); assay: Off-target panel at Eurofins Cerep, β1; assay type: binding
T3 construct: Eurofins (Celle-Lévescault, France)
T3 sequence (P08588 whole entry): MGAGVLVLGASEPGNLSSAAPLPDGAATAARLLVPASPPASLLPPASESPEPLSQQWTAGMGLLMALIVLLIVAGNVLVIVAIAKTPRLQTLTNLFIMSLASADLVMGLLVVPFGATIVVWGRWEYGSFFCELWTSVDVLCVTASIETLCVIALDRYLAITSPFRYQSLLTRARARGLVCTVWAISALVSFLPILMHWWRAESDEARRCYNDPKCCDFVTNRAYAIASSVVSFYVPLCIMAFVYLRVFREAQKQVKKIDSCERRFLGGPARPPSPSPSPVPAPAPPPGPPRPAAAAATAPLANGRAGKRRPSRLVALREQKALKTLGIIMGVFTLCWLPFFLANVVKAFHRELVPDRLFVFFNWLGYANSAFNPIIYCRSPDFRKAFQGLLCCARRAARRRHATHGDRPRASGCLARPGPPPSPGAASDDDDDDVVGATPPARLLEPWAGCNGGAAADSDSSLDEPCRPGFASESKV
Experimental: as §1

histaminic H1R = target: T4, histaminic H1R (Homo sapiens, UniProt P35367); assay: Off-target panel at Eurofins Cerep, H1; assay type: binding; details: read-out: inhibition at histamine H1
T4 construct: Eurofins (Celle-Lévescault, France)
T4 sequence (P35367 whole entry): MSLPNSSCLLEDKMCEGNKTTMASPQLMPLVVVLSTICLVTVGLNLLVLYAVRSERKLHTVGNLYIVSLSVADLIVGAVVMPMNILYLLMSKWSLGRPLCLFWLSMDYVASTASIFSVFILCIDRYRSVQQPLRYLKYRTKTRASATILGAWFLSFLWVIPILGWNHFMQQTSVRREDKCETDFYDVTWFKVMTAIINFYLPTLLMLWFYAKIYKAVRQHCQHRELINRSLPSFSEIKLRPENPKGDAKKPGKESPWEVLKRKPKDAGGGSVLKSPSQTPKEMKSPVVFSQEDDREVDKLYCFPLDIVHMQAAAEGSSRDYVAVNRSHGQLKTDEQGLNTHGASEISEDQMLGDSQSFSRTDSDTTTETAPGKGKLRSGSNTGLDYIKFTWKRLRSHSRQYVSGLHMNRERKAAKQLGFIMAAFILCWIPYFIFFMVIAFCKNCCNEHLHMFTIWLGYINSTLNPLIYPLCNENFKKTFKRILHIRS
Experimental: as §1

hERG potassium channel = target: T5, hERG potassium channel (Homo sapiens, UniProt Q12809); assay: Off-target panel at Eurofins Cerep, hERG; assay type: binding; details: read-out: inhibition at hERG channels
T5 construct: Eurofins (Celle-Lévescault, France)
T5 sequence (Q12809 whole entry): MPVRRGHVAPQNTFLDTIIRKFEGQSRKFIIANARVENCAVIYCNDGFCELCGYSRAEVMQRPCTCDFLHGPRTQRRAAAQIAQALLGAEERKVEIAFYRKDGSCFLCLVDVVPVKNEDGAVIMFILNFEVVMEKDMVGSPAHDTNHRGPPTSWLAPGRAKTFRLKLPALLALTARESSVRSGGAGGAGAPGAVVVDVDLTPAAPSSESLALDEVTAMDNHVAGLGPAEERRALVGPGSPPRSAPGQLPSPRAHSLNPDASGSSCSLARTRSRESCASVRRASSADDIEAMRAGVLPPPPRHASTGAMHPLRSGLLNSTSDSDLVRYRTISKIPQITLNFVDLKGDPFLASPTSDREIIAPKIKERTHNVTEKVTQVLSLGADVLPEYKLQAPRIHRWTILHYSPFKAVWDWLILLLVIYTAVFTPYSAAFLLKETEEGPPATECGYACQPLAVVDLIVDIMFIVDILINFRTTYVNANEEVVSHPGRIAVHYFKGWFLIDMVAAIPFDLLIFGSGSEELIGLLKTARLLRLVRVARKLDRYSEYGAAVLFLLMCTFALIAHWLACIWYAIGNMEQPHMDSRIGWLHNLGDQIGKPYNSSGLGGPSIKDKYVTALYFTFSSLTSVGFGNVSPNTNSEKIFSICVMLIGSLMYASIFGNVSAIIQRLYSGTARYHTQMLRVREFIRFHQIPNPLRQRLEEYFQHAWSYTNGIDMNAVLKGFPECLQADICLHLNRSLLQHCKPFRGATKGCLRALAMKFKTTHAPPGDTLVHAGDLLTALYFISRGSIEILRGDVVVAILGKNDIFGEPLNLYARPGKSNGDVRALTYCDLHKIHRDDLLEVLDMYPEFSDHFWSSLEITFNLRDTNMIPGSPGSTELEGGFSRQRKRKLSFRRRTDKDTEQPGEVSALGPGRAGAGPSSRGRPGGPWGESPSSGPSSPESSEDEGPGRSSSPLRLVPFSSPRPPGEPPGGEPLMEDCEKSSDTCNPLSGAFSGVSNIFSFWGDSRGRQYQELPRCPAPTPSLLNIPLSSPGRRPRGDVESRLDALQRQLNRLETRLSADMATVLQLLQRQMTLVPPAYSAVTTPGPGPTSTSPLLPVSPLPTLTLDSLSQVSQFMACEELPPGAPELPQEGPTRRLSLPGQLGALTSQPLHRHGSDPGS
Experimental: as §1

α1-ARs = assay: Radioligand binding, displacement of [3H]-Prazosin from α1-ARs on rat cerebral cortex; details: for Sα2/α1 (ratio of affinity for α2- and α1-ARs): Ki α2 / Ki α1; for Ki: [3H]-Prazosin, rat cerebral cortex, ± SEM, two independent experiments
Experimental: The pharmacological profile of the new compounds was assessed in radioligand-binding assays as the ability to displace [^3H]-Prazosin or [^3H]-Clonidine from α1- and α2-ARs, respectively, on rat cerebral cortex. The inhibition constants (Ki) were calculated from the Cheng-Prusoff equation [24].
The affinity of the obtained compounds was evaluated by radioligand-binding assays (the ability to displace [^3H]-Prazosin and [^3H]-Clonidine from α1- and α2-ARs, respectively) on rat cerebral cortex. The brains are homogenized in 20 volumes of an ice-cold 50 mM Tris-HCl buffer (pH 7.6) and is centrifuged (MPW Med. Instruments, Warsaw, Poland) at 20,000 g for 20 min (0–4 °C). The cell pellet is resuspended in the Tris-HCl buffer and centrifuged again. Radioligand-binding assays are performed in plates (MultiScreen/Millipore, Burlington, MA, USA). The final incubation mixture (final volume 300 µL) consisted of 240 µL of the membrane suspension, 30 µL of [^3H]-Prazosin (0.2 nM) or [^3H]-Clonidine (2 nM) solution, and 30 µL of the buffer containing seven to eight concentrations (10^−11 to 10^−4 M) of the tested compounds. For measuring the unspecific binding, phentolamine, 10 µM (in the case of [^3H]-Prazosin) and clonidine, and 10 µM (in the case of [^3H]-Clonidine), were applied. The incubation was terminated by rapid filtration over glass fiber filters (Whatman GF/C, Sigma-Aldrich) using a vacuum manifold (Millipore). The filters were then washed twice with the assay buffer and placed in scintillation vials with a liquid-scintillation cocktail. Radioactivity was measured in a WALLAC 1409 DSA liquid-scintillation counter (BioSurplus, San Diego, CA, USA). All the assays were made in duplicate.

Row | inhibition at 1 µM (muscarinic M1R) [%] | Ki (human 5-HT1A) [nM] | inhibition at 1 µM (adrenergic β1-AR) [%] | inhibition at 1 µM (histaminic H1R) [%] | Sα2/α1 (ratio of affinity for α2- and α1-ARs) (α1-ARs) | Ki (α1-ARs) [nM] | Structure (SMILES) | inhibition at 1 µM (hERG potassium channel) [%]
1 | < 50 | 70 ± 3.5 | < 50 | < 50 | 17 | 50 ± 2 | O=S(=O)(NCC1CCN(CCOc2ccccc2OCC(F)(F)F)CC1)c1cccc(Cl)c1F [Compound 9, 3-Chloro-2-fluoro-N-[(1-{2-[(2,2,2-trifluoroethoxy)phenoxy]ethyl}piperidin-4-yl)methyl]benzenesulfonamide] | < 50
2 | < 50 | 46 ± 0.6 | < 50 | < 50 | 23 | 26 ± 1 | O=S(=O)(NCC1CCN(CCOc2ccccc2OCC(F)(F)F)CC1)c1cc(Cl)ccc1F [Compound 10, 5-Chloro-2-fluoro-N-[(1-{2-[(2,2,2-trifluoroethoxy)phenoxy]ethyl}piperidin-4-yl)methyl]benzenesulfonamide] | < 50
